According to patent US20190117555A1, “SUBLINGUAL COMPOSITIONS COMPRISING NATURAL EXTRACTS AND USES THEREOF” (HARMONIC PHARMA, priority 2016, published 2019):

How the values were obtained:
[1] = Total AntiOxidant Power (PAOT) assay; conditions: for total antioxidant efficacy (PAOT): n=4, FIG. 3 and 4
Description: 2.4. Total AntiOxidant Power (PAOT®) Assay (Oxidative Stress)
Technology PAOT/POT® (Total AntiOxidant Power/Total Oxidant Power) is based on the electrochemical nature of redox reactions: a balance between antioxidants and oxidants [www.ie-antioxydants.com]. The assays were carried out in quadruplicate (n=4) (The higher value corresponds to the best antioxidant efficacy).

IL-1β = IL-1β release by LPS-stimulated PBMCs (HTRF); format: cell-based; conditions: Homo sapiens, PBMC, 5 μg/mL LPS, 24 h, read-out: % inhibition IL-1β (Standard deviation)
Description: (§1) Interleukin-1beta (IL-1beta) and tumor necrosis factor-alpha (TNF-alpha) mediate the development of numerous inflammatory diseases. IL-1beta and TNF-alpha therefore constitute suitable biomarkers to characterize the anti-inflammatory property of compounds of the part of branch extracts of the invention.
(§2) Peripheral blood mononuclear cells (PBMCs) were prepared from the peripheral blood of healthy donors (Etablissement Français du Sang) according to Kümmerle et al. (J Med Chem. 2012, 55, 7525-7545) with slight modifications. PBMCs were isolated using Histopaque gradient (Sigma), washed in Hanks' balanced salt solution (Sigma) and were then cultured in RPMI-1640 medium (Sigma) supplemented with 10% (v/v) fetal bovine serum (FBS) (PAA), 100 U/mL penicillin and 100 μg/mL streptomycin (PAA). PBMCs were seeded into 96-well plates (8×10^4 cells/well) and stimulated with 5 μg/mL LPS (Lipopolysaccharides, Sigma), into a total volume of 120 μL per well. HMR was re-suspended in DMSO and tested at 10, 30, and 100 μM (DMSO 1%) in duplicate. […] Cells incubation was realized at 37° C. (5% CO2).
(§3) After 24 h, PBMCs supernatants were transferred into a 384-well plate. Cytokine detection was performed using HTRF technology (Cisbio bioassays) for TNF-α (62TNFPEC), IL-1β (62IL1PEC) according to supplier recommendations. Reading was performed after 3 h of incubation using Envision multi-labelled reader (PerkinElmer) using supplier recommended parameters.

[2] = Oxygen Radical Absorbance Capacity (ORAC) assay; conditions: n=4
Excerpt: 2.3. Oxygen Radical Absorbance Capacity (ORAC) Assay
(Ou B., Hampsch-Woodill M. and Prior R. L.: “Development and Validation of an Improved Oxygen Radical Absorbance Capacity Assay Using Fluorescein as the Fluorescent Probe”, J. Agric. Food Chem., 2001, 49 (10), 4619-4626)
Measurement of antioxidant capacity by the ORAC method is based on the detection of fluorescence drop of fluorescein (FL) thanks to its reaction with peroxyl radical ROO*, in a food matrix containing antioxidant compounds. Fluorescence was read with an excitation wavelength of 485 nm and an emission filter of 528 nm. AAPH solution and FL were prepared in a phosphate buffer solution at 75 mM at pH 7.4. The control of this reaction is the trolox which is also prepared in the same buffer. Six different quantities (10, 20, 35, 50, 70, 80 μl) of product with concentration of 0.5 mg/L were placed in the wells of the microplate with FL and adjusted at the same volume with buffer solution (80 μl). The mixture was preincubated for 30 min at 37° C., before rapidly adding the AAPH solution (220 μl) using a multichannel pipette. The microplate was immediately placed in the reader and the fluorescence recorded every 6 min for 240 min. A blank with FL and AAPH using sodium phosphate buffer instead of the antioxidant solution was used. The inhibition capacity was expressed as reference compound equivalents (μM), and is quantified by integrating of the area under the curve (AUC) of the fluorescein. The assays were carried out in quadruplicate (n=4). Efficacy of the tested samples is expressed as reference ORAC units per gram of products (the higher value corresponds to the stronger antioxidant activity).

Human COX-2 = biological target: T1, Human COX-2 (Homo sapiens, UniProt P35354); assay: Human COX-2 inhibition assay; format: biochemical; conditions: HMR 10 μM; extract equiv. 10 μM
T1 sequence (P35354 18-604): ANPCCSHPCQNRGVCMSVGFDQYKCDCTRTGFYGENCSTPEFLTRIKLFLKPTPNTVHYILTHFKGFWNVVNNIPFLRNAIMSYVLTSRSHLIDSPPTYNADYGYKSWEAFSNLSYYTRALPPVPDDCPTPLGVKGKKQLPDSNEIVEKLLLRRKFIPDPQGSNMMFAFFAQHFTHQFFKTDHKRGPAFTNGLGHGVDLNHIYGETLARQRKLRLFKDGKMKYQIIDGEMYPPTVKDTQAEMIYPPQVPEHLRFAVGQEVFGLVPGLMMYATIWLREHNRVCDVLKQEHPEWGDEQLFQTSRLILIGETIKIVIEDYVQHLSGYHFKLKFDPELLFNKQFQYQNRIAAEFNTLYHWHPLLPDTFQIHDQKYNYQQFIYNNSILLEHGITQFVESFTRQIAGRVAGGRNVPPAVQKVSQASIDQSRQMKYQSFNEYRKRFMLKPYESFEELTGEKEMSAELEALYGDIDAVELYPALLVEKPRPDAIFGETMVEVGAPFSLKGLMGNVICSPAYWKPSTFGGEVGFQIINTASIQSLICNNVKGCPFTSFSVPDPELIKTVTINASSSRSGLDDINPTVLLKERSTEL
Excerpt: The results are expressed as a percent inhibition of the control enzyme activity.

Human 5-LO = biological target: T2, Human 5-LO (Homo sapiens, UniProt P09917); assay: Human 5-LO inhibition assay; format: biochemical; conditions: HMR 10 μM; extract equiv. 10 μM
T2 sequence (P09917 1-674): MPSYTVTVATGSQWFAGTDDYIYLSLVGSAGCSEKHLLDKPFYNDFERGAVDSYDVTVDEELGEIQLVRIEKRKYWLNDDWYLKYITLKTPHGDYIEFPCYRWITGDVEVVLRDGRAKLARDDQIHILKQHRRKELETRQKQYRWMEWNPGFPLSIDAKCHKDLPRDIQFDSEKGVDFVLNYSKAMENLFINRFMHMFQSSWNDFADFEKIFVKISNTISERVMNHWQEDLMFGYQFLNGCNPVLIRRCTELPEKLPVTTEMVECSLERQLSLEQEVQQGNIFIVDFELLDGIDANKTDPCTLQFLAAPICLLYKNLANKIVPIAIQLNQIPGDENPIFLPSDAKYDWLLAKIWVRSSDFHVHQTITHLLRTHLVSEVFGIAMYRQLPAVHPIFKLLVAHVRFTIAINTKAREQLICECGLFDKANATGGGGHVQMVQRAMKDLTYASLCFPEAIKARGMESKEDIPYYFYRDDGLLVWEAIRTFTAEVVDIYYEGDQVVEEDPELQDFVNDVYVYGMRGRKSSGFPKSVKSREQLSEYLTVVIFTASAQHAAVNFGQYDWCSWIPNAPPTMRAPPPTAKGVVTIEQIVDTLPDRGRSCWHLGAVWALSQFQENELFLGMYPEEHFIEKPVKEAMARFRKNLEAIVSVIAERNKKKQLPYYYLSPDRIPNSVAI
Description: Human 5-LO Inhibition Assay:
The test compound, reference compound or water (control) were preincubated for 5 min at room temperature with 10^4 lysed cells/well in a buffer containing 50 mM Tris-HCl (pH 7.4), 5 mM CaCl2, 2 mM EDTA, 1 μM ATP and 50 nM fluorescent probe dihydrorhodamine 123. The fluorescence intensity was then measured at λex=485 nm and λem=535 nm using a microplate reader (Envision, Perkin Elmer). This measurement at t=0 allowed the detection of any compound interference with the fluorimetric detection method at these wavelengths. Thereafter, the reaction was initiated by adding 25 μM of the substrate arachidonic acid and the mixture was incubated for 20 min at room temperature. The reaction was stopped by adding a buffer containing 67% acetonitrile and 0.2% acetic acid and the fluorescence intensity emitted by the reaction product rhodamine 123 was measured at the same wavelengths (t=20). The enzyme activity was determined by subtracting the signal measured at t=0 from that measured at t=20.
The results are expressed as a percent inhibition of the control activity.

TNF-α = TNF-α release by LPS-stimulated PBMCs (HTRF); format: cell-based; conditions: Homo sapiens, PBMC, 5 μg/mL LPS, 24 h, read-out: % inhibition TNF-α (Standard deviation)
Description: as §1, §2, §3

[3] = Trolox Equivalent Antioxidant Capacity (TEAC) assay; conditions: per 1 g of product; FIG. 2
Description: Trolox Equivalent Antioxidant Capacity (TEAC) Assay
ABTS radical cation (ABTS•+) was produced by reacting 7 mM ABTS stock solution with 2.45 mM potassium persulfate and allowing the mixture to stand in the dark at room temperature for 12-16 h before being used. Next ABTS•+solution was diluted with PBS (Phosphate Buffer Saline) (pH 7.4) to an absorbance of 0.5 at 734 nm and equilibrated at 30° C. 200 μl of ABTS•+ and (10, 20, 35, 50, 70, 80 μl) of product solutions (0.5 mg/L) was mixed and adjusted to 300 μl with buffer solution. After 15 min incubation, the optical density was measured. The assays were performed in quadruplicate (n=4). Efficacy is expressed as a value of EC50 (the smaller value of EC50 corresponds to the stronger antioxidant activity).

| SMILES | total antioxidant efficacy (PAOT) [1] | antioxidant activity with regard to Trolox ([1]; reference Trolox) | antioxidant activity with regard to Vitamin E ([1]; reference Vitamin E (tocopherol)) | antioxidant activity with regard to β-carotene ([1]; reference β-carotene) | inhibition at 10 µM (IL-1β; 10 μM) [%] | inhibition at 30 µM (IL-1β; 30 μM) [%] | inhibition at 100 µM (IL-1β; 100 μM) [%] | μmol Trolox/g tested product [2] | μmol Vit. C/g tested product [2] | μmol Vit. E/g tested product [2] | μmol β-carotene/g tested product [2] | inhibition at 10 µM (Human COX-2) [%] | inhibition at 10 µM (Human 5-LO) [%] | inhibition at 10 µM (TNF-α; 10 μM) [%] | inhibition at 30 µM (TNF-α; 30 μM) [%] | inhibition at 100 µM (TNF-α; 100 μM) [%] | antioxidant activity of 1 g of product equivalent to g of trolox [3] [g] | antioxidant activity of 1 g of product equivalent to g of vitamin E [3] [g] |
| --- | --- | --- | --- | --- | --- | --- | --- | --- | --- | --- | --- | --- | --- | --- | --- | --- | --- | --- |
| COc1cc(C[C@H]2C(=O)OC[C@@H]2[C@H](O)c2ccc(O)c(OC)c2)ccc1O (stereo in doubt) [HMR, Hydroxymatairesinol] | 4.99 mmol/g equivalent of antioxidant | 0.62 gram of reference compound per gram of tested product | 1.07 gram of reference compound per gram of tested product | 2.68 gram of reference compound per gram of tested product | 10 | 25 | 28 | 210 ± 50 μmol Trolox/g tested product | 110 ± 10 μmol Vit. C/g tested product | 105 ± 10 μmol Vit. E/g tested product | 27 ± 2 μmol β-carotene/g tested produ | 18.7 | 14.7 | 7 | 15 | 26 |  |  |
| OC[C@H](Cc1cccc(O)c1)[C@H](CO)Cc1cccc(O)c1 [enterodiol] | 1.07 mmol/g equivalent of antioxidant |  |  |  |  |  |  | 500 ± 60 μmol Trolox/g tested product | 700 ± 100 μmol Vit. C/g tested product | 600 ± 80 μmol Vit. E/g tested product | 165 ± 5 μmol β-carotene/g tested produ |  |  |  |  |  | 0.15 | 0.22 |
| O=C1OC[C@H](Cc2cccc(O)c2)[C@H]1Cc1cccc(O)c1 [enterolactone] | 1.06 mmol/g equivalent of antioxidant |  |  |  |  |  |  | 560 ± 50 μmol Trolox/g tested product | 110 ± 10 μmol Vit. C/g tested product | 105 ± 10 μmol Vit. E/g tested product | 30 ± 2 μmol β-carotene/g tested produ |  |  |  |  |  | 0.13 | 0.19 |
